Test results from patent US5554641A, “Nonpeptides as tachykinin antagonists” (priority 1995, dated 1996).

biological target: T1, human NK3 receptor (Homo sapiens, UniProt P29371); test: In vitro human NK3 receptor binding assay ([125I]-[MePhe7]neurokinin B, CHO cell membranes)
T1 construct: expressed in transfected cells; host or cells: CHO cell membranes
T1 sequence (P29371 1-465): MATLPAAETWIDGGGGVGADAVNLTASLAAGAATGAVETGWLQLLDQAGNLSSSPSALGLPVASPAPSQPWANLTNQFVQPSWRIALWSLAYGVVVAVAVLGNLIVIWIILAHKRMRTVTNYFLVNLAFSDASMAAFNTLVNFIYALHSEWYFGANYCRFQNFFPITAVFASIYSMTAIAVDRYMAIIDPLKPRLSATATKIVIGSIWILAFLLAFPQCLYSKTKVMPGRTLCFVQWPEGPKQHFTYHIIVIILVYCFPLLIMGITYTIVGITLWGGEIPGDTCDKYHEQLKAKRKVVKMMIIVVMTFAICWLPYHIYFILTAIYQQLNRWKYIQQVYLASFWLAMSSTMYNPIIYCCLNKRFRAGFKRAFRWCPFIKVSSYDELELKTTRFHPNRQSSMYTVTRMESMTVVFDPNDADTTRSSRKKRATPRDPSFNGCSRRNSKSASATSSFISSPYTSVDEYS

| SMILES | IC50 |
| --- | --- |
| CC(C)[C@H](OC(=O)NC(C)(Cc1cc2ccccc2o1)C(=O)NCCCCCCCNC(N)=O)c1ccccc1 (single isomer, unassigned) [Example 10] | 91 nM |
| CC(C)[C@H](OC(=O)N[C@](C)(Cc1ccccc1)C(=O)NCCCCCCCCC(N)=O)c1ccccc1 [Example 1, Carbamic acid, [2-[(9-amino-9-oxononyl)amino]-1-methyl-2-oxo-1-(phenylmethyl)ethyl]-, 2-methyl-1-phenylpropyl ester, [R-(R*,S*)]-] | 52 nM |
| CC(C)C(OC(=O)N[C@](C)(Cc1ccccc1)C(=O)NCCCCCCCCC(N)=O)c1ccc(Cl)cc1 (stereo partly shown) [Example 2, Carbamic acid, [2-[(9-amino-9-oxononyl)amino]-1-methyl-2-oxo-1-(phenylmethyl)ethyl]-, 1-(4-chlorophenyl)-2-methylpropyl ester] | 258 nM |
| C[C@](Cc1ccccc1)(NC(=O)OC(c1ccccc1)C1CCCC1)C(=O)NCCCCCCCCC(N)=O (stereo partly shown) [Example 3, [1-(8-Carbamoyl-octylcarbamoyl)-1-methyl-2-phenyl-ethyl]-carbamic acid cyclopentyl-phenyl-methyl ester] | 40 nM |
| CC1(C)CCc2ccccc2C1OC(=O)N[C@](C)(Cc1ccccc1)C(=O)NCCCCCCCCC(N)=O (stereo partly shown) [Example 4, [1-(8-Carbamoyl-octylcarbamoyl)-1-methyl-2-phenyl-ethyl]-carbamic acid 2,2-dimethyl-1,2,3,4-tetrahydro-naphthalen-1-yl ester] | 102 nM |
| C[C@](Cc1ccccc1)(NC(=O)OC1CCCCc2ccccc21)C(=O)NCCCCCCCCC(N)=O (stereo partly shown) [Example 5, [1-(8-Carbamoyl-octylcarbamoyl)-1-methyl-2-phenyl-ethyl]-carbamic acid 6,7,8,9-tetrahydro-5H-benzocyclohepten-5-yl ester] | 18 nM |
| CC1(C)CCCc2ccccc2C1OC(=O)N[C@](C)(Cc1ccccc1)C(=O)NCCCCCCCCC(N)=O (stereo partly shown) [Example 6, [1-(8-Carbamoyl-octylcarbamoyl)-1-methyl-2-phenyl-ethyl]-carbamic acid 6,6-dimethyl-6,7,8,9-tetrahydro-5H-benzocyclohepten-5-yl ester] | 61 nM |
| CC(C)C(OC(=O)NC(C)(Cc1cccc(F)c1F)C(=O)NCCCOCCCNC(N)=O)c1ccccc1 (stereo not shown) [Example 11, {2-(2,3-Difluoro-phenyl}-1-methyl-1-[3-{3-ureido-propoxy)-propylcarbamoyl]-ethyl}-carbamic acid 2-methyl-1-phenyl-propyl ester] | 30 nM |
| CC(C)[C@H](OC(=O)N[C@](C)(Cc1ccccc1)C(=O)N[C@@H](Cc1ccc(O)cc1)C(=O)NCCCCCCO)c1ccccc1 [Example 12, {1-[1-(6-Hydroxy-hexylcarbamoyl)-2-(4-hydroxy-phenyl)-ethylcarbamoyl]-1-methyl-2-phenyl-ethyl}-carbamic acid 2-methyl-1-phenyl-propyl ester] | 15 nM |
| CC(C)[C@H](OC(=O)N[C@](C)(Cc1ccccc1)C(=O)N[C@@H](Cc1ccc(O)cc1)C(=O)NCCCCCCCO)c1ccccc1 [Example 13, {1-[1-(7-Hydroxy-heptylcarbamoyl)-2-(4-hydroxy-phenyl)-ethylcarbamoyl]-1-methyl-2-phenyl-ethyl}-carbamic acid 2-methyl-1-phenyl-propyl ester] | 12 nM |
| CC(C)[C@@H](OC(=O)N[C@](C)(Cc1ccccc1)C(=O)NC(C)(C)c1ccccc1)c1ccccc1 [Example 15, [1-Methyl-1-(1-methyl-1-phenyl-ethylcarbamoyl)-2-phenyl-ethyl]-carbamic acid 2-methyl-1-phenyl-propyl ester] | 114 nM |
| CC(C)[C@@H](OC(=O)N[C@](C)(Cc1ccccc1)C(=O)N[C@@H](CO)c1ccccc1)c1ccccc1 [Example 16, [1-(2-Hydroxy-1-phenyl-ethylcarbamoyl)-1-methyl-2-phenyl-ethyl]-carbamic acid 2-methyl-1-phenyl-propyl ester] | 94 nM |
| CC(C)C(OC(=O)N[C@](C)(Cc1ccccc1)C(=O)N[C@@H](C)c1ccccc1)c1ccc(F)cc1 (stereo partly shown) [Example 17, [1-Methyl-2-phenyl-1-(1-phenyl-ethylcarbamoyl)-ethyl]-carbamic acid 1-(4-fluoro-phenyl)-2-methyl-propyl ester] | 982 nM |
